Source: ChEMBL document CHEMBL5096159, “Annual review of LSD1/KDM1A inhibitors in 2020” (Eur J Med Chem, 2021)
pIC50: −log10 of the molar value.

How the values were obtained:
[1] = target: T1, Lysine-specific histone demethylase 1A (Homo sapiens, UniProt O60341); assay: Inhibition of recombinant LSD1 (unknown origin) expressed in Escherichia coli BL21 using H3K4me2 as substrate preincubated for 10 mins followed by substrate addition and measured after 30 mins by fluorescence based analysis
[2] = target: T1, Lysine-specific histone demethylase 1A; assay: Inhibition of LSD1 (unknown origin) by Spectra Max Paradigm Microplate Reader analysis
[3] = target: T1, Lysine-specific histone demethylase 1A; assay: Inhibition of recombinant LSD1 (unknown origin) using H3K4me2 as a substrate measured after 0.5 hrs by fluorescence based analysis
MGC-803 = assay: Antiproliferative activity against human MGC-803 cells assessed as reduction in cell viability after 72 hrs by MTT assay; assay type: functional, cell-based; details: MGC-803, 72 h
[4] = Cytotoxicity against human GES1 cells assessed as cell viability measured after 72 hrs by MTT assay; assay type: toxicity, cell-based
BGC-823 = assay: Antiproliferative activity against human BGC-823 cells assessed as reduction in cell viability incubated for 5 days by MTS assay; assay type: functional, cell-based; details: BGC-823, 120 h
MDA-MB-231 = assay: Antiproliferative activity against human MDA-MB-231 cells assessed as reduction in cell viability after 24 hrs by MTT assay; assay type: functional, cell-based; details: MDA-MB-231, 24 h

| pIC50 [2] | SMILES | pIC50 [1] | further results |
| --- | --- | --- | --- |
| – | COc1cc2c(cc1OC)-c1cc3ccc(OC)c(OC)c3c[n+]1CC2 [PALMITINE] | 4.91 | – |
| – | COc1ccc2cc3[n+](cc2c1OC)CCc1cc2c(cc1-3)OCO2 [BERBERINE] | 5.16 | – |
| – | COc1cc2c(cc1O)-c1cc3ccc(OC)c(OC)c3c[n+]1CC2 [COLUMBAMINE] | 6.33 | – |
| – | COc1ccc(-c2coc3cc(O)cc(O)c3c2=O)cc1 [BIOCHANIN] | – | pIC50 [3]: 5.53; pIC50 (MGC-803): 5.17; IC50 at 72 h [4]: > 32 µM |
| – | COc1cc(CNC(=O)CCCC/C=C/C(C)C)ccc1O [CAPSAICIN] | – | pIC50 (BGC-823): 5.33 |
| 6.96 | O=C(/C=C/c1ccc(O)c2c1[C@H](C(=O)O[C@H](Cc1ccc(O)c(O)c1)C(=O)O)[C@@H](c1ccc(O)c(O)c1)O2)O[C@H](Cc1ccc(O)c(O)c1)C(=O)O | – | pIC50 (MDA-MB-231): 4.26 |
| – | COc1cc2c(cc1O)CC[n+]1cc3c(OC)c(OC)ccc3cc1-2 [JATRORRHIZINE] | 5.81 | – |
| 4.78 | Cc1coc2c1C(=O)C(=O)c1c-2ccc2c(C)cccc12 [TANSHINONE I] | – | – |
| 4.68 | O=C(/C=C/c1ccc(O)c(O)c1)O[C@H](Cc1ccc(O)c(O)c1)C(=O)O [ROSMARINIC ACID] | – | – |

| SMILES | pIC50 [2] | pIC50 [1] | further results |
| --- | --- | --- | --- |
| C[C@H]1COC2=C1C(=O)C(=O)c1c2ccc2c1CCCC2(C)C [CRYPTOTANSHINONE] | 5.04 | – | – |
| Cc1cccc2c3c(ccc12)C1=C(C(=O)C3=O)[C@@H](C)CO1 [DIHYDROTANSHINONE I] | 4.80 | – | – |
